Data published in ChEMBL document CHEMBL1201862, “PubChem BioAssay data set” (2004).
Active and inactive are the calls of the source.

What was measured:
Format in all cases: functional
Caspase-3 = biological target: T1, Caspase-3 (Homo sapiens, UniProt P42574);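 also: Dose-response selectivity test against caspase-3 for candidate inhibitors of sentrin-specific proteases (SENPs)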
T1 sequence (P42574 whole entry): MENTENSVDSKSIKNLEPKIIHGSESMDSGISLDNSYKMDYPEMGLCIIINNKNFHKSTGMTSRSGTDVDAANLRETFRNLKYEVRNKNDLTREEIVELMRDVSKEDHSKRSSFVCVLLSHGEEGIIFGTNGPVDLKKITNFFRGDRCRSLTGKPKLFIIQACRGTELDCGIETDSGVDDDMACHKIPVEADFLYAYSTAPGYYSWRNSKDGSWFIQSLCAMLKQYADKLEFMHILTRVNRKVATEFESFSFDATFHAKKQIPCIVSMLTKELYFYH

[1] = biological target: T2, Sentrin-specific protease 6 (Homo sapiens, UniProt Q9GZR1);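 also: Luminescence-based dose-response confirmatory assay of SENP6 inhibition, following up an ultra-high-throughput screen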
T2 sequence (Q9GZR1 whole entry): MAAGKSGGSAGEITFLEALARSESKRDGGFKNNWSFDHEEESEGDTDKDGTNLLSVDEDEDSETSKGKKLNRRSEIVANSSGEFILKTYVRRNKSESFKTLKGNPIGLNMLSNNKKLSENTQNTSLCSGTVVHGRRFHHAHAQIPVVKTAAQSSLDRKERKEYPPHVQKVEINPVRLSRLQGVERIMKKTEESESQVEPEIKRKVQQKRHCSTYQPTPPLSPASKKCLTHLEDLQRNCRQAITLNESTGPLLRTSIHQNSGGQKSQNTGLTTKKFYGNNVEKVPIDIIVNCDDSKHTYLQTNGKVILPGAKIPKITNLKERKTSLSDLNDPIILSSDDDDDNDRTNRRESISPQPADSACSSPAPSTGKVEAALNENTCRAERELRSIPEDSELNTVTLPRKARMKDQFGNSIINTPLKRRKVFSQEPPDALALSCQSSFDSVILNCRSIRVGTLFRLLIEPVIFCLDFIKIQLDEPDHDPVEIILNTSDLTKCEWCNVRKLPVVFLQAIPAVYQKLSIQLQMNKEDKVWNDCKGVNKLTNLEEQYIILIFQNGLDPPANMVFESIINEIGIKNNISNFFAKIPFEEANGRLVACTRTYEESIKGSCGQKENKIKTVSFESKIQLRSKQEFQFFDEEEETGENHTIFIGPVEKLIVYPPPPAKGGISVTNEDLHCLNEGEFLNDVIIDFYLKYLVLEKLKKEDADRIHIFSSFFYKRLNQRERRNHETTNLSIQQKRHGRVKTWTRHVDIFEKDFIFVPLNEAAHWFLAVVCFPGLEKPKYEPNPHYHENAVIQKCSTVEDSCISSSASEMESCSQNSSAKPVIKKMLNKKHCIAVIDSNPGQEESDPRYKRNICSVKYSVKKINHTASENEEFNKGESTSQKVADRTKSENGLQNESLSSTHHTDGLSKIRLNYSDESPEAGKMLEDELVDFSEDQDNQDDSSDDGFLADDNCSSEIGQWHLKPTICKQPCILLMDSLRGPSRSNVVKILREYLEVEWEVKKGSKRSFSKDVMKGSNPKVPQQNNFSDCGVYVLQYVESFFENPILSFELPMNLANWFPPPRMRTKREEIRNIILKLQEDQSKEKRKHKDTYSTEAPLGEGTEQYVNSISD

[2] = biological target: T3, Sentrin-specific protease 7 (Homo sapiens, UniProt Q9BQF6);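 also: Luminescence-based dose-response confirmation of ultra-high-throughput screening hits, measuring inhibition of SENP7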
T3 sequence (Q9BQF6 whole entry): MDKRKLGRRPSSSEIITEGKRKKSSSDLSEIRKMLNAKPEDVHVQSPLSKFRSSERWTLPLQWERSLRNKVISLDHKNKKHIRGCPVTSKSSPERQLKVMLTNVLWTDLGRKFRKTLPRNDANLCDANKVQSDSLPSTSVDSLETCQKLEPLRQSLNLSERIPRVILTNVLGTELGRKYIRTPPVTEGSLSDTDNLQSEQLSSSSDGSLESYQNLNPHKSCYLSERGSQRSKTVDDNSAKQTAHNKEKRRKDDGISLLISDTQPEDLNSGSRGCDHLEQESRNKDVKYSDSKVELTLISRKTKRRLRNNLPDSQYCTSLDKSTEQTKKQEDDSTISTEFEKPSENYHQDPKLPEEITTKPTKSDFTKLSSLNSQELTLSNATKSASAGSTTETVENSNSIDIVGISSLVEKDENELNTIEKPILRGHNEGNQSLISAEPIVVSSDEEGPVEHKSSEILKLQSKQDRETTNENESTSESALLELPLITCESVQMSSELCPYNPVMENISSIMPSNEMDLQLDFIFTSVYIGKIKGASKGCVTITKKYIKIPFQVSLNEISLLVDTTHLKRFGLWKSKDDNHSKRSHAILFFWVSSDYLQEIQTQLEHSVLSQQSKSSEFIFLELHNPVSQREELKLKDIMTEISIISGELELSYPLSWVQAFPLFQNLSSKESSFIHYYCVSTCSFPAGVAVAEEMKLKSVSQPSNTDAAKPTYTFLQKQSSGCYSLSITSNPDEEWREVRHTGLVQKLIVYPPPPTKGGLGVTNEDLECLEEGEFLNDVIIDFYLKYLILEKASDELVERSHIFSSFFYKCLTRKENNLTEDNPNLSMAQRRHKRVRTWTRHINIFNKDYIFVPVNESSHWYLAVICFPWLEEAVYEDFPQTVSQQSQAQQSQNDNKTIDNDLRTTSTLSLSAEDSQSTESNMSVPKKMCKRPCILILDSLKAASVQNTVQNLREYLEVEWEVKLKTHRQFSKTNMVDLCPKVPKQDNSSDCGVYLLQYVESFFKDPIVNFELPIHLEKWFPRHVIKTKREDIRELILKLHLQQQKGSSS

[3] = biological target: T4, Sentrin-specific protease 8 (Homo sapiens, UniProt Q96LD8);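 also: luminescence read-out of SENP8 inhibition, dose-response confirmation following an ultra-high-throughput screen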
T4 sequence (Q96LD8 whole entry): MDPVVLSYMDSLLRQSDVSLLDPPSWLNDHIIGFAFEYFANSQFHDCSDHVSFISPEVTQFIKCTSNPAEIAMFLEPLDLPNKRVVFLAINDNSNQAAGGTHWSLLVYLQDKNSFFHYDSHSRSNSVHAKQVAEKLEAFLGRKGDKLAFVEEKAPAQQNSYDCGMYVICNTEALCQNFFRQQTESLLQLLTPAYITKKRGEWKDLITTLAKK

H4 = experiment: Luminescence Cell-Based Dose Response HTS to Identify Activators of 5'UTR Stem-Loop Driven Prion Protein mRNA Translation in H4 Neuroglioblastoma Cells. [Related pubchem assays: 1829 (Project Summary), 1814 (Primary HTS)]; conditions: Homo sapiens
[4] = Luminescence Cell-Based Dose Response HTS to Identify Activators of Luciferase Translation or Activity in H4 […] Cells. [Related pubchem assays: 1829 (Project Summary), 1814 (Primary HTS)]
Phospholipase D1 = biological target: T5, Phospholipase D1 (Homo sapiens, UniProt Q13393); experiment: PLD1 inhibitor potency in cells, dose response (AID 602151);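 also: cellular PLD1 assay in Calu-1 cells stimulated with PMA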
T5 sequence (Q13393 whole entry): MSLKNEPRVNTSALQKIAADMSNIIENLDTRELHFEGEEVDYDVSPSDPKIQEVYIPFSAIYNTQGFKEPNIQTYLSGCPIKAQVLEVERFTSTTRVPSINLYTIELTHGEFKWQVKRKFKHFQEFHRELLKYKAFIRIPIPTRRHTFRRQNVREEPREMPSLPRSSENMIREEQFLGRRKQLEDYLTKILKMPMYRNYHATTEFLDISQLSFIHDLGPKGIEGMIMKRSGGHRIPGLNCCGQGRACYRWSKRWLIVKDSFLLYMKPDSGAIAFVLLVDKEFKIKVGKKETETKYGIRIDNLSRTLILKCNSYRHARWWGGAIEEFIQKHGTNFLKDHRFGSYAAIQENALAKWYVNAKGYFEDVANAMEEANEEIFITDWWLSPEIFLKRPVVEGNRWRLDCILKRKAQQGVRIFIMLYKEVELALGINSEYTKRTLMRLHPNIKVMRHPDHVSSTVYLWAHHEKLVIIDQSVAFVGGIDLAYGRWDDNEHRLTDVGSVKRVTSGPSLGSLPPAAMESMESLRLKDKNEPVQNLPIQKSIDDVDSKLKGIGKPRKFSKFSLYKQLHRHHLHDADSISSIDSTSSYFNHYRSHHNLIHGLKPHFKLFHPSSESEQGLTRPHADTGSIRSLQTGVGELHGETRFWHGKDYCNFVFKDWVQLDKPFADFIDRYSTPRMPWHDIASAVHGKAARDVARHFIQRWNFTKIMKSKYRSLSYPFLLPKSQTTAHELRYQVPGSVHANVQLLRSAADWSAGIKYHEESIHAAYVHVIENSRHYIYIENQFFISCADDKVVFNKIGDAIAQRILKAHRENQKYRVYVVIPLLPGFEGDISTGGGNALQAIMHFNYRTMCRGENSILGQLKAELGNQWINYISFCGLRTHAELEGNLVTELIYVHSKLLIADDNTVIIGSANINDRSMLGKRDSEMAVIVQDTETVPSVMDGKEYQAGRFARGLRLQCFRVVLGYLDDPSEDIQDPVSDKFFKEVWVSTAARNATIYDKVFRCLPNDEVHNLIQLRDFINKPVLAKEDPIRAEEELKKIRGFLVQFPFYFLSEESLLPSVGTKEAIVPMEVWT

Phospholipase D2 = Phospholipase D2 (Homo sapiens, UniProt O14939); experiment: PLD2 inhibitor potency in cells, dose response (AID 602147);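 also: cellular assay in HEK293 cells overexpressing GFP-tagged PLD2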
Phospholipase D2, sequence (O14939 whole entry): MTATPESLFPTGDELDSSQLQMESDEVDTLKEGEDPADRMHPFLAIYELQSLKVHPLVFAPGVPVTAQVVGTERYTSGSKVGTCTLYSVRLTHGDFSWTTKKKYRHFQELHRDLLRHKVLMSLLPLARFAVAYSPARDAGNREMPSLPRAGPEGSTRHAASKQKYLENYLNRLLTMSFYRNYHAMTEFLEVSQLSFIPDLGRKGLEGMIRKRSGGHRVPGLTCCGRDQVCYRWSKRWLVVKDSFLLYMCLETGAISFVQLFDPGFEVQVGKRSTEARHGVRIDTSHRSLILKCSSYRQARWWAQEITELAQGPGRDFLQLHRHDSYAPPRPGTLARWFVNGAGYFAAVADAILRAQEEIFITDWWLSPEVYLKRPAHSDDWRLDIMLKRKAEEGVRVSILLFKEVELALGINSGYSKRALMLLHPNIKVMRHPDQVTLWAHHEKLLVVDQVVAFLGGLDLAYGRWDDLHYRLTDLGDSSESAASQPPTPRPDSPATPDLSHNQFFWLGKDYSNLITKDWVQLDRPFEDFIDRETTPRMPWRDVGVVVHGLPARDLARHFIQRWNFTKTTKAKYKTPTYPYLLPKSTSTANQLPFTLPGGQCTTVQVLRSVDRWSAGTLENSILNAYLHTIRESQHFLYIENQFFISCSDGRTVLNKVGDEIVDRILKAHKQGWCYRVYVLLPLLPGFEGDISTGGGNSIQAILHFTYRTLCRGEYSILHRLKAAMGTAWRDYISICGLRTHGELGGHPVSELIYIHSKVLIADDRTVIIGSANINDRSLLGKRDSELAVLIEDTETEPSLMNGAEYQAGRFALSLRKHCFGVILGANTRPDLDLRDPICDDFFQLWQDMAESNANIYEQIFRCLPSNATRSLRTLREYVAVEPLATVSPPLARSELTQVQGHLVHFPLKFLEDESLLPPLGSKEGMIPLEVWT

[5] = biological target: Vascular endothelial growth factor receptor 2 (Homo sapiens, UniProt P35968)
Vascular endothelial growth factor receptor 2, sequence (P35968 whole entry): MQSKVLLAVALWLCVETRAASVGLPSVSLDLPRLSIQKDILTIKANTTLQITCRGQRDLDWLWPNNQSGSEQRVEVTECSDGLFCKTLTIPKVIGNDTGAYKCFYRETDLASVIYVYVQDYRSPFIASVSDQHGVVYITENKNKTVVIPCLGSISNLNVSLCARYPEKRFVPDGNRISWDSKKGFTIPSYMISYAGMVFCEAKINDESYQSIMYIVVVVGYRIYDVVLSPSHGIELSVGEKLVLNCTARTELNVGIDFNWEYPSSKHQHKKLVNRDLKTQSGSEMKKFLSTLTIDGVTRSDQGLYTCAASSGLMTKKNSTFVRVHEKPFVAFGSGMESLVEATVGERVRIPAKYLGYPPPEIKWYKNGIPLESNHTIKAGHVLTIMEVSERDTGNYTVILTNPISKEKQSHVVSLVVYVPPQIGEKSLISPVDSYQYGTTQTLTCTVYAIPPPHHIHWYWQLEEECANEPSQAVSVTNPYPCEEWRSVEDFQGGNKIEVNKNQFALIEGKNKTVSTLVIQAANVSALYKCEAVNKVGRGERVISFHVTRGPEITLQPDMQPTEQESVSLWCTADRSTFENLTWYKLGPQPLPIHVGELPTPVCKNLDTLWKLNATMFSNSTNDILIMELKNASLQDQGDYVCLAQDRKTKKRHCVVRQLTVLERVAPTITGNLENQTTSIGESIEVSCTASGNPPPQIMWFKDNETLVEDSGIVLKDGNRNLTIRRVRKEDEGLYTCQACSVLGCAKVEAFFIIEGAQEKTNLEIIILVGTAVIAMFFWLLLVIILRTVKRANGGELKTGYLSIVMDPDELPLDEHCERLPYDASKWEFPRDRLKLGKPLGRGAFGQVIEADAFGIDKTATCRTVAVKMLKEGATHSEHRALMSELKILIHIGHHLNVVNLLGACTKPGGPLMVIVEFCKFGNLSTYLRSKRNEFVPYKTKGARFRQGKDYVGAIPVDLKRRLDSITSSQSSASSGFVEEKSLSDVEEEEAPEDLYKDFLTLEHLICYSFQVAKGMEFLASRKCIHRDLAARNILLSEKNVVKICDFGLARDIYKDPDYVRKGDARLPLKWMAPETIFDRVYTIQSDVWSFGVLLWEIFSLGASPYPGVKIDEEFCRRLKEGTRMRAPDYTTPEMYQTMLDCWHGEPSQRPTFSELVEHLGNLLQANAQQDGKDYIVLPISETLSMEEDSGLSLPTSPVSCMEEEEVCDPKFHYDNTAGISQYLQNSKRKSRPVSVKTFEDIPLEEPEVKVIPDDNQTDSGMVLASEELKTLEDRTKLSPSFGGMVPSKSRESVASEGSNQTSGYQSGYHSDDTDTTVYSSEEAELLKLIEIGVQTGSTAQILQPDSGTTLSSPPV

Aurora kinase B = Aurora kinase B (Homo sapiens, UniProt Q96GD4)
Aurora kinase A = biological target: T6, Aurora kinase A (Homo sapiens, UniProt O14965);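 also: value from the Navigating the Kinome kinase panel profiling, panel entry STK6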
T6 sequence (O14965 whole entry): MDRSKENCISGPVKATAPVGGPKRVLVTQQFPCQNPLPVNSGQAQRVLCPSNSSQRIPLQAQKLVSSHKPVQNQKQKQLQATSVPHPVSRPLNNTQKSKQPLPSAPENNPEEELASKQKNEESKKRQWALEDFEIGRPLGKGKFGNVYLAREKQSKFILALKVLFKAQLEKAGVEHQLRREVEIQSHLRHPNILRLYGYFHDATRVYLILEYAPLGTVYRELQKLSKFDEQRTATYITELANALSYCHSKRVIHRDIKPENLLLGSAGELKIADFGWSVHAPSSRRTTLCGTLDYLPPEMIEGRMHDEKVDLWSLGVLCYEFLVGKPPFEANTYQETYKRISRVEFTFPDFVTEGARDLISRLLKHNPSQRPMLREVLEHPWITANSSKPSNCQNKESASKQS

[6] = biological target: cAMP-dependent protein kinase catalytic subunit alpha (Homo sapiens, UniProt P17612)
[7] = biological target: T7, Interleukin-1 receptor-associated kinase 4 (Homo sapiens, UniProt Q9NWZ3)
T7 sequence (Q9NWZ3 whole entry): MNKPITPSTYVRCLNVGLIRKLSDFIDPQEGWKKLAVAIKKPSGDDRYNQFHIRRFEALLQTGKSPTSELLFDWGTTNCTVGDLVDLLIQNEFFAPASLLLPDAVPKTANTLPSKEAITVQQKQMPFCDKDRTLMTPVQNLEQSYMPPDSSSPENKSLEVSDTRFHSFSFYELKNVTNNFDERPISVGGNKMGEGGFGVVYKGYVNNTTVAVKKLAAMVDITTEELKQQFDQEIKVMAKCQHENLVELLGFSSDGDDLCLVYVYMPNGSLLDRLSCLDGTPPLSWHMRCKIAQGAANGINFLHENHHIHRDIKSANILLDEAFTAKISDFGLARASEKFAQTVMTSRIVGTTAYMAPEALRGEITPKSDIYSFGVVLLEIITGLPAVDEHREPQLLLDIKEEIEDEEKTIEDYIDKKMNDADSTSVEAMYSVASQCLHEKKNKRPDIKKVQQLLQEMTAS

[8] = biological target: Glycogen synthase kinase-3 beta (Homo sapiens, UniProt P49841);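 also: value comes from a broad kinome profiling panel, with GSK3B as the panel member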
[9] = biological target: Cell division cycle 7-related protein kinase (Homo sapiens, UniProt O00311);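 also: value obtained from a kinome-wide kinase panel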
[10] = biological target: MAP kinase-interacting serine/threonine-protein kinase 2 (Homo sapiens, UniProt Q9HBH9)
[11] = biological target: Mitogen-activated protein kinase kinase kinase kinase 4 (Homo sapiens, UniProt O95819)
Mitogen-activated protein kinase kinase kinase kinase 4, sequence (O95819 whole entry): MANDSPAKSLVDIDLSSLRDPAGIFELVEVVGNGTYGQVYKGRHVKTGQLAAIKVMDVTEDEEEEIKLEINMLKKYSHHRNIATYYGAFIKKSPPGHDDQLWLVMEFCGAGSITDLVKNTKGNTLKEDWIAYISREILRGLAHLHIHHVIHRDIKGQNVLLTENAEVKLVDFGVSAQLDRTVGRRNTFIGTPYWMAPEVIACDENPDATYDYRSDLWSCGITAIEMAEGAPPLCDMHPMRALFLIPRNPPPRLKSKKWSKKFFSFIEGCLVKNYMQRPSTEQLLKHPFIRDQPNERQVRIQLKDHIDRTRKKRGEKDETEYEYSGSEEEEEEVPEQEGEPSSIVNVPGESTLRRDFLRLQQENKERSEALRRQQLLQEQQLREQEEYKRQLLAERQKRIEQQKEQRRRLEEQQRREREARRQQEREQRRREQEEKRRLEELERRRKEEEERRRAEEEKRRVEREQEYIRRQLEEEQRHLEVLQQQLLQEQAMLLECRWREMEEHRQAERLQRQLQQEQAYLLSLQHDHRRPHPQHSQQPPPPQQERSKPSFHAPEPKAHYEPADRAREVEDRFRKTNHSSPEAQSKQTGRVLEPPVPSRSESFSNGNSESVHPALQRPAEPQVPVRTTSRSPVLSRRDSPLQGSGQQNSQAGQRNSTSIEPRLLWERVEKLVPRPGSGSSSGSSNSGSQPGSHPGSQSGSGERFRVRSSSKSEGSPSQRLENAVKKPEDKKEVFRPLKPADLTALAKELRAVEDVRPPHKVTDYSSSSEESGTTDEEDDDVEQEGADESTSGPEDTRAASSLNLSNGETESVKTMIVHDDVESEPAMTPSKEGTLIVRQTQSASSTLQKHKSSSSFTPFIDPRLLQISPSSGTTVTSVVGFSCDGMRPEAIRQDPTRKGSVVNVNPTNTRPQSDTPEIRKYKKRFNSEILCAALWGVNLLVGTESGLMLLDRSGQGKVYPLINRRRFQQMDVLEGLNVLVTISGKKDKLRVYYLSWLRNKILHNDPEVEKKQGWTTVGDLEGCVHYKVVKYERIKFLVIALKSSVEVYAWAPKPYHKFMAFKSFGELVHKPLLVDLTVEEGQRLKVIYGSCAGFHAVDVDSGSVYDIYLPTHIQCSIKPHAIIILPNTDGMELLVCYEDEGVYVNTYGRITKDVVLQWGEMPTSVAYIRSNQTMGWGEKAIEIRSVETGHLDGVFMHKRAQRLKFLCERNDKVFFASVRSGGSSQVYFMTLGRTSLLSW

[12] = biological target: Serine/threonine-protein kinase pim-1 (Homo sapiens, UniProt P11309)
Serine/threonine-protein kinase pim-1, sequence (P11309 whole entry): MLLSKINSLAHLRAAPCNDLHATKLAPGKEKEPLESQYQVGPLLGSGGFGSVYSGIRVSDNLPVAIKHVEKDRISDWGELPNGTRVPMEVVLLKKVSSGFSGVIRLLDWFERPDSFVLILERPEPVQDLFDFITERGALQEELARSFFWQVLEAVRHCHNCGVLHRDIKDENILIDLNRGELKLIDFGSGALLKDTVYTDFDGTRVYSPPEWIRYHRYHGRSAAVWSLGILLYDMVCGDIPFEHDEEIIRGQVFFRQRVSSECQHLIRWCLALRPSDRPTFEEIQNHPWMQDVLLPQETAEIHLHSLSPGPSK

[13] = biological target: Homeodomain-interacting protein kinase 2 (Homo sapiens, UniProt Q9H2X6);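 also: measured within a kinome-wide kinase profiling panel, HIPK2 being one panel member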
Homeodomain-interacting protein kinase 2, sequence (Q9H2X6 whole entry): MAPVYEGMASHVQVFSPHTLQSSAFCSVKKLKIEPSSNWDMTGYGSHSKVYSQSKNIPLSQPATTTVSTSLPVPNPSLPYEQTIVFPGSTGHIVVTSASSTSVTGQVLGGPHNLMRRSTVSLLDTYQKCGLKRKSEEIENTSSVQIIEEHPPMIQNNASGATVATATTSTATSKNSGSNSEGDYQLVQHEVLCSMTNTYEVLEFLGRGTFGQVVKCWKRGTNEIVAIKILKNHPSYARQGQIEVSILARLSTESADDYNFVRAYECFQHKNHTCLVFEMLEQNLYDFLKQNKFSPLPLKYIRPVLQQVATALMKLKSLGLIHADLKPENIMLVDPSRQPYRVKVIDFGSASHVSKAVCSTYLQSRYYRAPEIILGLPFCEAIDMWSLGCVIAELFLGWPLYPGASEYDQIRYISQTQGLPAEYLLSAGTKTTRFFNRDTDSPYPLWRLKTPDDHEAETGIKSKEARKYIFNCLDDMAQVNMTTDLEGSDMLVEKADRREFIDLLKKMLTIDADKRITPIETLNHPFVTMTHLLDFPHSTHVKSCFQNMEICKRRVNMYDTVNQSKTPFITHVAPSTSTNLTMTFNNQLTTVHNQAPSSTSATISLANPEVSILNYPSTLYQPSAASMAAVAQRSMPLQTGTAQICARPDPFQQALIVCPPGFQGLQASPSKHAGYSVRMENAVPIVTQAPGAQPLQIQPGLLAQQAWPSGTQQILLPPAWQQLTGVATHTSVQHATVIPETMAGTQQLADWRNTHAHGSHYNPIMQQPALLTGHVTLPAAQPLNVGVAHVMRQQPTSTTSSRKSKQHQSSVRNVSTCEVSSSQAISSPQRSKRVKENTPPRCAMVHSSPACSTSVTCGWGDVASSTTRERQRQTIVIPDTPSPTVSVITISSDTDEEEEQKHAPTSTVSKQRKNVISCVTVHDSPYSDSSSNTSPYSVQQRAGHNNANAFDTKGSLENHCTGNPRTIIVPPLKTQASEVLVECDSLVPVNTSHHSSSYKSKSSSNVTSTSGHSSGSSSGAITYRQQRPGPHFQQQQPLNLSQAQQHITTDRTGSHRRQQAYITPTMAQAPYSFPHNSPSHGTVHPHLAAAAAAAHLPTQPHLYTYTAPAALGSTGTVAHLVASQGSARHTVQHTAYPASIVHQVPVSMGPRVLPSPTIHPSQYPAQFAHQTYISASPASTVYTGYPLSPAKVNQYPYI

COc1ccc(COC(=O)c2c(C)nn(-c3ccccc3)c2Cl)cc1
active: IC50 (Caspase-3) 40.2 µM | IC50 [1] 73.3 µM | IC50 [2] 19.4 µM | IC50 [3] 98.1 µM

COc1ccc(-c2cc(O)cc(O)c2)cc1
active: IC50 (Caspase-3) 30.9 µM | IC50 [1] 41.1 µM | EC50 (H4) 4.12 µM | IC50 [2] 12.3 µM | EC50 [4] 3.8 µM | IC50 [3] 48 µM

CN(CCN1CCC(n2c(=O)[nH]c3ccccc32)CC1)C(=O)c1ccc2ccccc2c1
active: IC50 (Phospholipase D1) 2.06 µM | IC50 (Phospholipase D2) 20 µM

C[C@@H](CN1CCC2(CC1)C(=O)NCN2c1ccccc1)NC(=O)[C@@H]1C[C@H]1c1ccccc1
active: IC50 (Phospholipase D1) 2.56 µM | IC50 (Phospholipase D2) 20 µM

C[C@H](CN1CCC2(CC1)C(=O)NCN2c1ccccc1)NC(=O)c1cc2cc(F)ccc2[nH]1
active: IC50 (Phospholipase D1) 0.002 µM | IC50 (Phospholipase D2) 0.023 µM

CCCCS(=O)(=O)Nc1ccc2c(c1)C(=NO)c1ccccc1-2
active: Ki [5] 1.58 µM | Ki (Aurora kinase B) 10 nM | Ki (Aurora kinase A) 1.26 µM

c1cnc2[nH]cc(-c3ccnc(NCC4CCCCC4)n3)c2c1
active: Ki [6] 200 nM | Ki [7] 316 nM | Ki [8] 126 nM | Ki [9] 7.94 nM | Ki [10] 79.4 nM | Ki [11] 20 nM | Ki [13] 15.8 nM
inactive: Ki [12] > 10 µM
